# Tested on: 521955-158-R2-J5-PDC complex spheroid viability
# Experiment: Anticancer human tumor 521955-158-R2-J5-PDC patient-derived pancreatic carcinoma cell line growth inhibition
# Settings: for IC50: curve of first compound; for viability, T/C: stronger effect = lower value
# Summary of the method: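 Complex spheroids of tumor cells with HUVEC and human MSCs, exposed to iadademstat combined with other agents. Each agent tested in half-log steps from near clinical Cmax (else 10 microM top), DMSO ≤0.25%.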
# [1] = second compound 0.1 µM, first compound 0.0316 µM
# [2] = second compound 0.1 µM, first compound 0.1 µM
# [3] = second compound 0.1 µM, first compound 0.316 µM
# [4] = second compound 0.1 µM, first compound 1 µM
# [5] = second compound 0.1 µM, first compound 3.16 µM
# [6] = second compound 0.1 µM, first compound 10 µM
# [7] = second compound 0.316 µM, first compound 0.0316 µM
# [8] = second compound 0.316 µM, first compound 0.1 µM
# [9] = second compound 0.316 µM, first compound 0.316 µM
# [10] = second compound 0.316 µM, first compound 1 µM
# [11] = second compound 0.316 µM, first compound 3.16 µM
# [12] = second compound 0.316 µM, first compound 10 µM
# [13] = second compound 1 µM, first compound 0.0316 µM
# [14] = second compound 1 µM, first compound 0.1 µM
# [15] = second compound 1 µM, first compound 0.316 µM
# [16] = second compound 1 µM, first compound 1 µM
# [17] = second compound 1 µM, first compound 3.16 µM
# [18] = second compound 1 µM, first compound 10 µM
# [19] = second compound 3.16 µM, first compound 0.0316 µM
# [20] = second compound 3.16 µM, first compound 0.1 µM
# [21] = second compound 3.16 µM, first compound 0.316 µM
# [22] = second compound 3.16 µM, first compound 1 µM
# [23] = second compound 3.16 µM, first compound 3.16 µM
# [24] = second compound 3.16 µM, first compound 10 µM
# [25] = second compound 10 µM, first compound 0.0316 µM
# [26] = second compound 10 µM, first compound 0.1 µM
# [27] = second compound 10 µM, first compound 0.316 µM
# [28] = second compound 10 µM, first compound 1 µM
# [29] = second compound 10 µM, first compound 3.16 µM
# [30] = second compound 10 µM, first compound 10 µM
# [31] = second compound 0.1 µM, first compound 0.00949 µM
# [32] = second compound 0.1 µM, first compound 0.03 µM
# [33] = second compound 0.1 µM, first compound 0.0949 µM
# [34] = second compound 0.1 µM, first compound 0.3 µM
# [35] = second compound 0.316 µM, first compound 0.00949 µM
# [36] = second compound 0.316 µM, first compound 0.03 µM
# [37] = second compound 0.316 µM, first compound 0.0949 µM
# [38] = second compound 0.316 µM, first compound 0.3 µM
# [39] = second compound 1 µM, first compound 0.00949 µM
# [40] = second compound 1 µM, first compound 0.03 µM
# [41] = second compound 1 µM, first compound 0.0949 µM
# [42] = second compound 1 µM, first compound 0.3 µM
# [43] = second compound 3.16 µM, first compound 0.00949 µM
# [44] = second compound 3.16 µM, first compound 0.03 µM
# [45] = second compound 3.16 µM, first compound 0.0949 µM
# [46] = second compound 3.16 µM, first compound 0.3 µM
# [47] = second compound 10 µM, first compound 0.00949 µM
# [48] = second compound 10 µM, first compound 0.03 µM
# [49] = second compound 10 µM, first compound 0.0949 µM
# [50] = second compound 10 µM, first compound 0.3 µM
# 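Also: spheroids exposed to agents for seven days.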
# 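For viability, T/C in this document: percent of DMSO vehicle control luminescence viability.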
smiles,measurement,setting,value
CC1(C)CCC(CN2CCN(c3ccc(C(=O)NS(=O)(=O)c4ccc(NCC5CCOCC5)c([N+](=O)[O-])c4)c(Oc4cnc5[nH]ccc5c4)c3)CC2)=C(c2ccc(Cl)cc2)C1 + NC1CCC(NC2CC2c2ccccc2)CC1,IC50,second compound 0.1 µM,4200 nM
same,IC50,second compound 0.316 µM,3810 nM
same,IC50,second compound 1 µM,3770 nM
same,IC50,second compound 3.16 µM,3110 nM
same,IC50,second compound 10 µM,3790 nM
same,"viability, T/C",[1],109%
same,"viability, T/C",[2],116%
same,"viability, T/C",[3],112%
same,"viability, T/C",[4],109%
same,"viability, T/C",[5],66.1%
same,"viability, T/C",[6],0.51%
same,"viability, T/C",[7],119%
same,"viability, T/C",[8],113%
same,"viability, T/C",[9],116%
same,"viability, T/C",[10],111%
same,"viability, T/C",[11],59.5%
same,"viability, T/C",[12],0.64%
same,"viability, T/C",[13],108%
same,"viability, T/C",[14],105%
same,"viability, T/C",[15],108%
same,"viability, T/C",[16],103%
same,"viability, T/C",[17],58.8%
same,"viability, T/C",[18],0.9%
same,"viability, T/C",[19],116%
same,"viability, T/C",[20],124%
same,"viability, T/C",[21],111%
same,"viability, T/C",[22],109%
same,"viability, T/C",[23],49%
same,"viability, T/C",[24],0.91%
same,"viability, T/C",[25],119%
same,"viability, T/C",[26],117%
same,"viability, T/C",[27],117%
same,"viability, T/C",[28],115%
same,"viability, T/C",[29],59.1%
same,"viability, T/C",[30],0.85%
CC1COCCN1c1cc(C2(S(C)(=N)=O)CC2)nc(-c2ccnc3[nH]ccc23)n1 (stereo not given) + NC1CCC(NC2CC2c2ccccc2)CC1,IC50,second compound 0.1 µM,528 nM
same,IC50,second compound 0.316 µM,505 nM
same,IC50,second compound 1 µM,531 nM
same,IC50,second compound 3.16 µM,500 nM
same,IC50,second compound 10 µM,446 nM
same,"viability, T/C",[1],104%
same,"viability, T/C",[2],87.7%
same,"viability, T/C",[3],76.6%
same,"viability, T/C",[4],16.5%
same,"viability, T/C",[5],12.6%
same,"viability, T/C",[6],16.9%
same,"viability, T/C",[7],88.7%
same,"viability, T/C",[8],82.8%
same,"viability, T/C",[9],71%
same,"viability, T/C",[10],19.3%
same,"viability, T/C",[11],13.2%
same,"viability, T/C",[12],16.1%
same,"viability, T/C",[13],79.7%
same,"viability, T/C",[14],90.3%
same,"viability, T/C",[15],74.7%
same,"viability, T/C",[16],19.8%
same,"viability, T/C",[17],12.3%
same,"viability, T/C",[18],15.3%
same,"viability, T/C",[19],97.6%
same,"viability, T/C",[20],93.9%
same,"viability, T/C",[21],71.5%
same,"viability, T/C",[22],17.6%
same,"viability, T/C",[23],11.3%
same,"viability, T/C",[24],14.8%
same,"viability, T/C",[25],85%
same,"viability, T/C",[26],81.6%
same,"viability, T/C",[27],64.4%
same,"viability, T/C",[28],16.2%
same,"viability, T/C",[29],12.3%
same,"viability, T/C",[30],16.7%
CCN(c1cc(-c2ccc(CN3CCOCC3)cc2)cc(C(=O)NCc2c(C)cc(C)[nH]c2=O)c1C)C1CCOCC1 + NC1CCC(NC2CC2c2ccccc2)CC1,IC50,second compound 0.1 µM,> 3000 nM
same,IC50,second compound 0.316 µM,2560 nM
same,IC50,second compound 1 µM,1880 nM
same,IC50,second compound 3.16 µM,1730 nM
same,IC50,second compound 10 µM,1490 nM
same,"viability, T/C",[31],105%
same,"viability, T/C",[32],105%
same,"viability, T/C",[33],94.4%
same,"viability, T/C",[34],83.3%
same,"viability, T/C","second compound 0.1 µM, first compound 0.949 µM",64.6%
same,"viability, T/C","second compound 0.1 µM, first compound 3 µM",51%
same,"viability, T/C",[35],103%
same,"viability, T/C",[36],99.1%
same,"viability, T/C",[37],95.8%
same,"viability, T/C",[38],78.2%
same,"viability, T/C","second compound 0.316 µM, first compound 0.949 µM",71%
same,"viability, T/C","second compound 0.316 µM, first compound 3 µM",46.3%
same,"viability, T/C",[39],103%
same,"viability, T/C",[40],99.8%
same,"viability, T/C",[41],93.7%
same,"viability, T/C",[42],79%
same,"viability, T/C","second compound 1 µM, first compound 0.949 µM",66%
same,"viability, T/C","second compound 1 µM, first compound 3 µM",39.5%
same,"viability, T/C",[43],96.8%
same,"viability, T/C",[44],103%
same,"viability, T/C",[45],96.3%
same,"viability, T/C",[46],82.8%
same,"viability, T/C","second compound 3.16 µM, first compound 0.949 µM",66.6%
same,"viability, T/C","second compound 3.16 µM, first compound 3 µM",35.7%
same,"viability, T/C",[47],103%
same,"viability, T/C",[48],101%
same,"viability, T/C",[49],94.6%
same,"viability, T/C",[50],83.8%
same,"viability, T/C","second compound 10 µM, first compound 0.949 µM",59.6%
same,"viability, T/C","second compound 10 µM, first compound 3 µM",34.8%
Nc1ncn(C2CC(O)C(CO)S2)c(=O)n1 (stereo not given) + NC1CCC(NC2CC2c2ccccc2)CC1,IC50,second compound 0.1 µM,> 300 nM
same,IC50,second compound 0.316 µM,> 300 nM
same,IC50,second compound 1 µM,> 300 nM
same,IC50,second compound 3.16 µM,> 300 nM
same,IC50,second compound 10 µM,> 300 nM
same,"viability, T/C","second compound 0.1 µM, first compound 0.000949 µM",92.9%
same,"viability, T/C","second compound 0.1 µM, first compound 0.003 µM",91%
same,"viability, T/C",[31],88.3%
same,"viability, T/C",[32],79.8%
same,"viability, T/C",[33],75.6%
same,"viability, T/C",[34],57.3%
same,"viability, T/C","second compound 0.316 µM, first compound 0.000949 µM",95.9%
same,"viability, T/C","second compound 0.316 µM, first compound 0.003 µM",92.2%
same,"viability, T/C",[35],88.9%
same,"viability, T/C",[36],84.6%
same,"viability, T/C",[37],70.3%
same,"viability, T/C",[38],51.5%
same,"viability, T/C","second compound 1 µM, first compound 0.000949 µM",92.5%
same,"viability, T/C","second compound 1 µM, first compound 0.003 µM",87%
same,"viability, T/C",[39],93.7%
same,"viability, T/C",[40],82.8%
same,"viability, T/C",[41],77.8%
same,"viability, T/C",[42],56.5%
same,"viability, T/C","second compound 3.16 µM, first compound 0.000949 µM",103%
same,"viability, T/C","second compound 3.16 µM, first compound 0.003 µM",110%
same,"viability, T/C",[43],91.7%
same,"viability, T/C",[44],88.1%
same,"viability, T/C",[45],76.6%
same,"viability, T/C",[46],52.7%
same,"viability, T/C","second compound 10 µM, first compound 0.000949 µM",93.6%
same,"viability, T/C","second compound 10 µM, first compound 0.003 µM",94.9%
same,"viability, T/C",[47],98%
same,"viability, T/C",[48],82.8%
same,"viability, T/C",[49],77.4%
same,"viability, T/C",[50],54.9%
O=C(C=Cn1cnc(-c2cc(C(F)(F)F)cc(C(F)(F)F)c2)n1)NNc1cnccn1 + NC1CCC(NC2CC2c2ccccc2)CC1,IC50,second compound 0.1 µM,< 3.16 nM
same,IC50,second compound 0.316 µM,< 3.16 nM
same,IC50,second compound 1 µM,< 3.16 nM
same,IC50,second compound 3.16 µM,< 3.16 nM
same,IC50,second compound 10 µM,< 3.16 nM
same,"viability, T/C","second compound 0.1 µM, first compound 0.00316 µM",40.4%
same,"viability, T/C","second compound 0.1 µM, first compound 0.01 µM",42%
same,"viability, T/C",[1],45.4%
same,"viability, T/C",[2],35.8%
same,"viability, T/C",[3],19%
same,"viability, T/C",[4],14.7%
same,"viability, T/C","second compound 0.316 µM, first compound 0.00316 µM",40.8%
same,"viability, T/C","second compound 0.316 µM, first compound 0.01 µM",33.4%
same,"viability, T/C",[7],52.3%
same,"viability, T/C",[8],40.6%
same,"viability, T/C",[9],21.5%
same,"viability, T/C",[10],16.1%
same,"viability, T/C","second compound 1 µM, first compound 0.00316 µM",37.7%
same,"viability, T/C","second compound 1 µM, first compound 0.01 µM",31.5%
same,"viability, T/C",[13],52.4%
same,"viability, T/C",[14],38.4%
same,"viability, T/C",[15],26.8%
same,"viability, T/C",[16],17.2%
same,"viability, T/C","second compound 3.16 µM, first compound 0.00316 µM",40.2%
same,"viability, T/C","second compound 3.16 µM, first compound 0.01 µM",41.1%
same,"viability, T/C",[19],36.1%
same,"viability, T/C",[20],41.5%
same,"viability, T/C",[21],21.6%
same,"viability, T/C",[22],17.1%
same,"viability, T/C","second compound 10 µM, first compound 0.00316 µM",32.2%
same,"viability, T/C","second compound 10 µM, first compound 0.01 µM",29.3%
same,"viability, T/C",[25],35.3%
same,"viability, T/C",[26],29%
same,"viability, T/C",[27],24.1%
same,"viability, T/C",[28],13.3%

# Reference: PubChem BioAssay AID1918937 (Molecular Pharmacology Branch, DTP, NCI, 2023)
